The source of these data is patent US8735414B2 (priority 2009, dated 2014).

For series [1], the system named is bicistronic HCV replicon (replicon RNA, GenBank Accession No. AJ242654). The series is described as follows: HCV Replicon Assay. It counts as cell-based. The note with it: Hepatitis C virus, 72 h, read-out: Replicon IC50.

The compound `CC(C)n1c(-c2ncc(S(=O)(=O)N[C@@H](C)C(F)(F)F)cn2)c(C#N)c2ccc(OC(F)F)cc21` [compound 399, 2-[3-cyano-6-(difluoromethoxy)-1-(propan-2-yl)-1H-indol-2-yl]-N-[(2S)-1,1,1-trifluoropropan-2-yl]pyrimidine-5-sulfonamide] returned a melting point of 219 to 221 °C. Further, the IC50 in series [1] was less than 0.5 µM.
Compound `Cc1ccnc(-n2c(-c3ccc(S(=O)(=O)N[C@@H](C)C(F)(F)F)cn3)c(C#N)c3cc(F)c(C)cc32)c1` [compound 886, 6-[3-cyano-5-fluoro-6-methyl-1-(4-methylpyridin-2-yl)-1H-indol-2-yl]-N-[(2S)-1,1,1-trifluoropropan-2-yl]pyridine-3-sulfonamide] yielded a melting point of 200 to 204 °C. Further, the IC50 in series [1] is less than 0.5 µM.
In the same order, the values of `CC(C)n1c(-c2ccc(S(=O)(=O)NC(CF)CF)cn2)c(C#N)c2ccc(F)cc21` [compound 61, 6-[3-cyano-6-fluoro-1-(propan-2-yl)-1H-indol-2-yl]-N-(1,3-difluoropropan-2-yl)pyridine-3-sulfonamide] are 155 to 156 °C and less than 0.5 µM.
In the same order, the values of `C[C@H](NS(=O)(=O)c1ccc(-c2c(C#N)c3cc(C(F)(F)F)ccc3n2-c2ncccn2)nc1)C(F)(F)F` [compound 922, 6-[3-cyano-1-(pyrimidin-2-yl)-5-(trifluoromethyl)-1H-indol-2-yl]-N-[(2S)-1,1,1-trifluoropropan-2-yl]pyridine-3-sulfonamide] are 180 to 183 °C and less than 0.5 µM.
Take `CCc1cc(F)c2c(C(N)=O)c(-c3ccc(NS(=O)(=O)C(C)(C)C)nc3)n(C3CCC3)c2c1` [compound 1118, 2-{6-[(tert-butylsulfonyl)amino]pyridin-3-yl}-1-cyclobutyl-6-ethyl-4-fluoro-1H-indole-3-carboxamide]: the melting point lay within 263 to 268 °C. Also, the IC50 in series [1] is less than 0.5 µM.
In the case of `Cc1ccc2c(C#N)c(-c3ncc(S(=O)(=O)NC(CF)CF)cn3)n(-c3ccccc3)c2c1` [compound 260, 2-(3-cyano-6-methyl-1-phenyl-1H-indol-2-yl)-N-(1,3-difluoropropan-2-yl)pyrimidine-5-sulfonamide], the melting point fell in the range of 169 to 171 °C. The IC50 in series [1] was less than 0.5 µM.
The compound `Cc1ccc2c(c1)c(C#N)c(-c1ncc(S(=O)(=O)N[C@@H](C)C(F)(F)F)cn1)n2C(C)C` [compound 566, 2-[3-cyano-5-methyl-1-(propan-2-yl)-1H-indol-2-yl]-N-[(2S)-1,1,1-trifluoropropan-2-yl]pyrimidine-5-sulfonamide] showed a melting point of 195 to 198 °C. In series [1], the IC50 lay within 0.5 to 2 µM.
As for `CCCn1c(-c2ncc(S(=O)(=O)NC(CF)CF)cn2)c(C#N)c2ccc(OC(F)F)cc21` [compound 232, 2-[3-cyano-6-(difluoromethoxy)-1-propyl-1H-indol-2-yl]-N-(1,3-difluoropropan-2-yl)pyrimidine-5-sulfonamide], the melting point fell in the range of 177 to 179 °C. Also, the IC50 in series [1] is less than 0.5 µM.
In the same order, the values of `COc1ccc2c(C#N)c(-c3ncc(S(=O)(=O)N[C@H](C)C(F)(F)F)cn3)n(C3CCC3)c2c1` [compound 183, 2-(3-cyano-1-cyclobutyl-6-methoxy-1H-indol-2-yl)-N-[(2R)-1,1,1-trifluoropropan-2-yl]pyrimidine-5-sulfonamide] are 147 to 149 °C and 0.5 to 2 µM.
Compound `CC(C)n1c(-c2ccc(NS(=O)(=O)C(C)(C)C)nc2)c(C#N)c2ccc(OC(F)F)cc21` [compound 299, N-{5-[3-cyano-6-(difluoromethoxy)-1-(propan-2-yl)-1H-indol-2-yl]pyridin-2-yl}-2-methylpropane-2-sulfonamide] had a melting point of 263 to 264 °C. The IC50 in series [1] fell in the range of 2 to 5 µM.
Compound `Cc1cc2c(cc1O)c(C#N)c(-c1ccc(S(=O)(=O)N[C@@H](C)C(F)(F)F)cn1)n2C1CCC1` [compound 796, 6-(3-cyano-1-cyclobutyl-5-hydroxy-6-methyl-1H-indol-2-yl)-N-[(2S)-1,1,1-trifluoropropan-2-yl]pyridine-3-sulfonamide] yielded a melting point of 193 to 195 °C. The IC50 in series [1] is less than 0.5 µM.
`Cc1cc2c(C#N)c(-c3ccc(S(=O)(=O)NC(CF)CF)cn3)n(C3CCCC3)c2cc1Cl` [compound 521, 6-(6-chloro-3-cyano-1-cyclopentyl-5-methyl-1H-indol-2-yl)-N-(1,3-difluoropropan-2-yl)pyridine-3-sulfonamide]: the melting point lay within 217.5 to 218 °C. In addition, in series [1], the IC50 is less than 0.5 µM.
Turning to `Cc1ccc2c(c1)c(C#N)c(-c1ncc(S(=O)(=O)NC(CF)CF)cn1)n2C(C)C` [compound 567, 2-[3-cyano-5-methyl-1-(propan-2-yl)-1H-indol-2-yl]-N-(1,3-difluoropropan-2-yl)pyrimidine-5-sulfonamide], the melting point is 160 to 163 °C. In series [1], the IC50 was less than 0.5 µM.
Regarding `C[C@H](NS(=O)(=O)c1ccc(-c2c(C#N)c3ccc(C(F)(F)F)cc3n2-c2cnccn2)nc1)C(F)(F)F` [compound 951, 6-[3-cyano-1-(pyrazin-2-yl)-6-(trifluoromethyl)-1H-indol-2-yl]-N-[(2S)-1,1,1-trifluoropropan-2-yl]pyridine-3-sulfonamide], the melting point lay within 208 to 213 °C. Besides, in series [1], the IC50 is less than 0.5 µM.
In the same order, the values of `CC(C)Oc1ccc2c(C#N)c(-c3ccc(NS(=O)(=O)C4CC4)nn3)n(C3CCC3)c2c1` [compound 274, N-{6-[3-cyano-1-cyclobutyl-6-(propan-2-yloxy)-1H-indol-2-yl]pyridazin-3-yl}cyclopropanesulfonamide] are 175 to 177 °C and 2 to 5 µM.
As for `Cc1cc(-c2c(C#N)c3cc(F)ccc3n2-c2ccccn2)ncc1S(=O)(=O)N[C@@H](C)C(F)(F)F` [compound 847, 6-[3-cyano-5-fluoro-1-(pyridin-2-yl)-1H-indol-2-yl]-4-methyl-N-[(2S)-1,1,1-trifluoropropan-2-yl]pyridine-3-sulfonamide], the melting point lay within 180 to 186 °C. Moreover, in series [1], the IC50 was less than 0.5 µM.
In turn, `CC[C@H](NS(=O)(=O)c1ccc(-c2c(C#N)c3cc(F)c(C)cc3n2C2CCCC2)nc1)C(F)(F)F` [compound 821, 6-(3-cyano-1-cyclopentyl-5-fluoro-6-methyl-1H-indol-2-yl)-N-[(2S)-1,1,1-trifluorobutan-2-yl]pyridine-3-sulfonamide] yielded a melting point of 201 to 207 °C. Moreover, the IC50 in series [1] is less than 0.5 µM.
In turn, `N#Cc1c(-c2ccc(S(=O)(=O)NC(CF)CF)cn2)n(C2CCCC2)c2ccc(OC(F)(F)F)cc12` [compound 34, 6-[3-cyano-1-cyclopentyl-5-(trifluoromethoxy)-1H-indol-2-yl]-N-(1,3-difluoropropan-2-yl)pyridine-3-sulfonamide] showed a melting point of 159 to 160 °C. For the same compound, the IC50 in series [1] was less than 0.5 µM.
Turning to `C[C@@H](NS(=O)(=O)c1ccc(-c2c(C#N)c3ccc(Cl)cc3n2C2CCCCC2)nc1)C(F)(F)F` [compound 514, 6-(6-chloro-3-cyano-1-cyclohexyl-1H-indol-2-yl)-N-[(2R)-1,1,1-trifluoropropan-2-yl]pyridine-3-sulfonamide], the melting point lay within 218 to 223 °C. For the same compound, the IC50 in series [1] was less than 0.5 µM.
Taken in the same sequence, the figures for `Cc1ccc2c(C#N)c(-c3ccc(NS(=O)(=O)C4CC4)cn3)n(C3CCCC3)c2c1` [compound 296, N-[6-(3-cyano-1-cyclopentyl-6-methyl-1H-indol-2-yl)pyridin-3-yl]cyclopropanesulfonamide] were 241 to 245 °C and 2 to 5 µM.
Consider `N#Cc1c(-c2ccc(S(=O)(=O)NC(CF)CF)cn2)n(-c2ccccn2)c2cc(C3CC3)ccc12` [compound 501, 6-[3-cyano-6-cyclopropyl-1-(pyridin-2-yl)-1H-indol-2-yl]-N-(1,3-difluoropropan-2-yl)pyridine-3-sulfonamide], for which the melting point fell in the range of 210 to 213 °C. In addition, in series [1], the concentration for half-maximal inhibition (IC50) is less than 0.5 µM.
In the same order, the values of `CC(C)(C)S(=O)(=O)Nc1ccc(-c2c(C#N)c3ccc(OC(F)F)cc3n2CC2CC2)cn1` [compound 269, N-{5-[3-cyano-1-(cyclopropylmethyl)-6-(difluoromethoxy)-1H-indol-2-yl]pyridin-2-yl}-2-methylpropane-2-sulfonamide] are 214 to 215 °C and 0.5 to 2 µM.
In the same order, the values of `N#Cc1c(-c2ncc(S(=O)(=O)NC(CF)CF)cn2)n(CC2CC2)c2cc(OC(F)F)ccc12` [compound 136, 2-[3-cyano-1-(cyclopropylmethyl)-6-(difluoromethoxy)-1H-indol-2-yl]-N-(1,3-difluoropropan-2-yl)pyrimidine-5-sulfonamide] are 207 to 209 °C and less than 0.5 µM.
`C[C@H](NS(=O)(=O)c1cnc(-c2c(C#N)c3cc(C#N)ccc3n2C2CCCC2)nc1)C1CC1` [compound 367, N-[(1S)-1-cyclopropylethyl]-2-(3,5-dicyano-1-cyclopentyl-1H-indol-2-yl)pyrimidine-5-sulfonamide]: the melting point fell in the range of 218 to 223 °C. Also, the half-maximal inhibitory concentration (IC50) in series [1] was in the range of 0.5 to 2 µM.
Taken in the same sequence, the figures for `Cc1cc2c(C#N)c(-c3ccc(S(=O)(=O)N[C@@H](C)C(F)(F)F)cn3)n(C3CCCC3)c2cc1Cl` [compound 522, 6-(6-chloro-3-cyano-1-cyclopentyl-5-methyl-1H-indol-2-yl)-N-[(2S)-1,1,1-trifluoropropan-2-yl]pyridine-3-sulfonamide] were 186 to 187 °C and less than 0.5 µM.
`Cc1c(F)cc2c(C#N)c(-c3ncc(S(=O)(=O)NC(CF)CF)cn3)n(C3CCCC3)c2c1F` [compound 656, 2-(3-cyano-1-cyclopentyl-5,7-difluoro-6-methyl-1H-indol-2-yl)-N-(1,3-difluoropropan-2-yl)pyrimidine-5-sulfonamide] displayed a melting point of 230 to 234 °C. Further, the IC50 in series [1] was less than 0.5 µM.
